Assay results published in PubChem BioAssay AID179 (DTP/NCI, 2004).
pEC50, pIC50: −log10 of the molar value. Activity calls are given as the source filed them.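 How the source made its calls: active means compounds giving half or more protection of infected cells from virus-caused growth loss, again on retest; inactive means the rest.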

Tested on: CEM cells HIV-1 protection, formazan growth assay
Test: NCI AIDS Antiviral Assay
Conditions: for pIC50: measured here: growth of uninfected CEM cells
Procedure, shortened: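 Soluble formazan readout of cell growth; CEM cells ± HIV-1; 5 drug concs. ≥50% protection → retest; ≥50% again = moderately active; reproducible 100% = confirmed active.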

SMILES | pEC50 | pIC50 | outcome
CN(C)c1ccc(C=NCC2CCCN3CCCCC23)cc1 (configuration not stated) | < 4.00 | < 4.00 | –
CCCCCCCCCO/N=C\c1c2c(O)c3c(O)c(C)c4c(c3c1O)C(=O)C(C)(O/C=C\C(OC)C(C)C(OC(C)=O)C(C)C(O)C(C)C(O)C(C)/C=C\C=C(\C)C(=O)N2)O4 (configuration not stated) | < 3.70 | 5.50 | –
NCCSC(C[N+](=O)[O-])c1ccccc1Cl (configuration not stated) | < 3.70 | 5.66 | –
COc1ccc2c(c1)OCCCN(C)OC2c1ccccc1 (configuration not stated) | – | – | inactive
Nc1cc(S(N)(=O)=O)ccc1SSc1ccc(S(N)(=O)=O)cc1N | 4.67 | 4.20 | –
CC1OC(n2cnc3c(N)nc(Cl)nc32)C(C)(O)C1O (configuration not stated) | – | – | inactive
CC12C3CC4C5CC(C(C53)[C@@H]1NCc1ccccc1)C42 (some centres not stated) | < 3.36 | 4.11 | –
CN(C)C(=S)/N=c1\ss/c(=N\S(=O)(=O)c2ccccc2)n1N(C)C | – | – | inactive
C=C(C)CCC[C@@H](C)C1CCC2(C)[C@@H]3CCC4C(C)(C)[C@@H](O)CC[C@@]45C[C@@]35CC[C@]12C (some centres not stated) | < 3.70 | 4.33 | –
COC1/C=C\OC2(C)Oc3c(C)c(O)c4c(c3C2=O)C(=O)C=C(NC(=O)C(C)=C/C=C\C(C)C(O)C(C)C2OC(C)(C)OC(C1C)C2C)C4=O (configuration not stated) | < 4.71 | 5.62 | –
O=S1(=O)CC2(N3CCOCC3)CCCC21 (configuration not stated) | < 2.97 | 3.64 | –
O=C(/C=C/c1ccccc1Cl)c1ccc(Cl)cc1Cl | < 5.48 | < 5.48 | –
COc1ccc2[nH]c3c(C)c4ccnc(NCCCN(C)CCCNc5ccc([N+](=O)[O-])c6[nH]c7ccccc7c(=O)c56)c4c(C)c3c2c1 | < 7.30 | 7.59 | –
CC[C@]1(O)C[C@H]2CN(CCc3c([nH]c4ccccc34)[C@@](C(=O)OC)(c3cc4c(cc3OC)N(C=O)[C@H]3[C@@](O)(C(=O)OC)[C@H](OC(C)=O)[C@]5(CC)C=CCN6CC[C@]43[C@@H]65)C2)C1 | < 7.52 | 9.28 | –
O=S(=O)(c1ccc(I)cc1)c1ccc(I)cc1 | – | – | inactive
O=C(O)COCC(=O)N(CCOCCN(Cc1ccccc1)C(=O)COCC(=O)O)Cc1ccccc1 | < 3.70 | < 3.70 | –
Cc1cc(C)cc(OCC2CNC(=O)O2)c1 (configuration not stated) | < 3.70 | < 3.70 | –
CCOC(=O)C1SC(=Nc2cccc(Cl)c2C)N=C1C (configuration not stated) | 5.22 | 4.22 | –
Nc1ccc(C(=Nc2ccccc2)c2ccc(N)cc2)cc1 | – | – | inactive
COC1/C=C/OC2(C)Oc3c(C)c(O)c4c(O)c(cc(OCC(=O)N(C)CC(=O)OC(C)(C)C)c4c3C2=O)NC(=O)/C(C)=C/C=C/C(C)C(O)C(C)C(O)C(C)C(OC(C)=O)C1C (configuration not stated) | < 3.70 | 4.55 | –
CC1CN1SSN1CC1C (configuration not stated) | < 3.70 | 3.74 | –

SMILES | pEC50 | pIC50 | outcome
Cc1ccc(S(=O)(=O)O/N=C(/CC/C(=N\OS(=O)(=O)c2ccc(C)cc2)c2ccccc2)c2ccccc2)cc1 | < 3.36 | < 3.36 | –
CC(=O)NC1=NC(=O)/C(=C\c2cccc(Cl)c2Cl)N1C | < 3.70 | 4.09 | –
Cc1cc2c(c3oc(=O)ccc13)[C@@H](OC(=O)C13CCC(C)(C(=O)O1)C3(C)C)[C@@H](OC(=O)C13CCC(C)(C(=O)O1)C3(C)C)C(C)(C)O2 (some centres not stated) | 6.42 | 5.70 | –
Cc1ccc(/C(O)=C/c2nc3ccccc3[nH]c2=O)c(C)c1 | < 3.70 | 4.45 | –
Cc1oc2ccccc2c(=O)c1C | – | – | inactive
O=C(O)Cc1cccc2c1OC(c1ccccc1)C(Cl)(C(=O)c1ccccc1)C2=O (configuration not stated) | < 3.70 | 5.26 | –
O=C(O)c1cc(-c2c3ccc(=O)cc-3oc3cc(O)ccc23)c(C(=O)O)cc1-c1c2ccc(=O)cc-2oc2cc(O)ccc12 | < 3.70 | < 3.70 | –
O=C(Nc1ccccc1)N(C1=NCC(CI)S1)c1ccc(F)c(F)c1 (configuration not stated) | < 3.70 | 4.74 | –
O=[N+]([O-])c1ccc(Cc2nc3ccccc3s2)cc1 | < 3.88 | 4.42 | –
Cc1cnc(NCCCN(C)C)c2c1[nH]c1ccc3ccccc3c12 | < 5.70 | 6.50 | –
Clc1cccc2[nH]c(-c3ccncc3)nc12 | < 3.70 | < 3.70 | –
COC(=O)C(=O)C(C(=O)C(=O)Nc1ccccc1OC)c1nc2ccc([N+](=O)[O-])cc2[nH]c1=O (configuration not stated) | < 3.27 | 4.02 | –
CCOP(=O)(CCn1cnc2c(N)ncnc21)OCC | 3.75 | 3.36 | –
Cc1cc(C)c(NS(=O)c2cccc([N+](=O)[O-])c2)c(C)c1 (configuration not stated) | < 4.51 | < 4.51 | –
COc1ccc(-c2cc(=O)c3c(C)cc(O)cc3o2)cc1 | 4.09 | 3.94 | –
COC(=O)c1cc(=O)n(Cc2ccco2)c(=Nc2ccccc2)s1 | < 4.00 | 4.86 | –
c1ccc(CCC2=Nc3ccccc3CO2)cc1 | < 3.96 | < 3.96 | –
O=C(Nc1ccc(/C=C/c2ccc(NC(=O)c3cc(S(=O)(=O)O)c4cccnc4c3O)cc2S(=O)(=O)O)c(S(=O)(=O)O)c1)c1cc(S(=O)(=O)O)c2cccnc2c1O | 5.35 | 3.83 | –
O=C1CN(/C=C(\c2ccccc2)S(=O)Cc2ccccc2)C(=S)N1 (configuration not stated) | < 3.70 | < 3.70 | –
c1ccc(Cn2c(-c3ccc(-c4ccccc4)cc3)cc3ccccc32)cc1 | < 4.00 | < 4.00 | –
O=c1/c(=C/c2ccc3c(c2)OCO3)sc2nnc(-c3ccco3)n12 | < 4.26 | < 4.26 | –

SMILES | pEC50 | pIC50 | outcome
NC(CSCCCO)C(=O)O (configuration not stated) | – | – | inactive
CC(C)(C)C1=C(Br)C(O)(C(C)(C)C)OP1(=O)c1ccccc1 (configuration not stated) | < 3.70 | 3.82 | –
Cc1ccc(OCC2OC(n3cnc4nc(Nc5ccc(Cl)c(Cl)c5)nc(Cl)c43)CC2Oc2ccc(C)cc2)cc1 (configuration not stated) | < 4.00 | < 4.00 | –
COc1ccc2c(-c3ccc(O)cc3)c(Oc3ccc(Cl)cc3)c(=O)oc2c1 | < 3.70 | 4.72 | –
COc1cc2c(cc1O)C1Cc3ccc(OC)c(O)c3C(C2)N1C (configuration not stated) | < 3.70 | 4.07 | –
C[C@]12CC[C@H](O)CC1=CC[C@@H]1C2CC[C@]2(C)Nc3[nH]ncc3CC12 (some centres not stated) | – | – | inactive
COc1ccc2cc3c4cc(OC)c(OC)cc4ccn3c2c1 | < 4.63 | 4.64 | –
COC=C=CC(C)(C)OC | < 3.26 | < 3.26 | –
Oc1ccc(O)c(Sc2nnc(CCCCCCCCc3nnc(Sc4cc(O)ccc4O)o3)o2)c1 | – | – | inactive
COc1ccc(/C=c2\sc3n(c2=O)C(N)=C(C#N)C(c2ccc(OC)cc2)C=3c2nc3ccccc3[nH]2)cc1 (configuration not stated) | < 5.15 | < 5.15 | –
O=c1[nH]nc(-c2ccccc2)n1/N=C\c1ccccc1 | < 3.70 | < 3.70 | –
CCN(CC)CCNc1ccc2ncn3c4cc(OC)c(OC)c(=O)c4c(O)c1c23 | < 4.30 | 6.23 | –
O=C(O)c1ccccc1SCc1cccc2c(=O)c3ccc(Cl)cc3oc12 | 4.99 | 4.52 | –
CC1CC(C)CC(NC2=NCCO2)C1 (configuration not stated) | < 3.70 | < 3.70 | –
CCCCNC(=O)Sc1ccccc1C(=O)NCCC(N)=O | 6.03 | 3.93 | –
COc1ccc(C(=O)/C=C/c2ccc(OCC(=O)O)cc2)cc1 | < 3.70 | 4.16 | –
Nc1nc2c(ncn2C2OC(CO)(C(F)(F)F)C(O)C2O)c(=O)[nH]1 (configuration not stated) | < 3.70 | < 3.70 | –
O=c1ccn([C@@H]2C[C@H](CO)CS(=O)C2)c(=O)[nH]1 (some centres not stated) | < 3.01 | < 3.01 | –
COc1cccc(/C=C/C(=O)c2ccccc2)c1 | < 4.24 | 4.96 | –
C1C2CC3CC1CC(c1nn4c(C56CC7CC(CC(C7)C5)C6)nnc4s1)(C2)C3 | < 3.70 | < 3.70 | –
CON(C)c1nc(N)c(C#N)c(C#N)c1C#N | < 3.70 | 4.45 | –

SMILES | pEC50 | pIC50 | outcome
O=C(NC1C=Nc2ccccc2NC1=O)c1ccccc1Cl (configuration not stated) | < 3.94 | 4.01 | –
CC12CCC(C3NC(=S)NN=C31)C2(C)C (configuration not stated) | < 3.52 | < 3.52 | –
CN1Cc2cc(O)c(O)cc2C(O)C1 (configuration not stated) | < 3.70 | 3.99 | –
C=CS(=O)(=O)CCN1CC1 | < 3.70 | < 3.70 | –
CCOC(=O)C1=Nc2ccccc2N=C(C2C(=O)C=C(C)OC2=O)C1 (configuration not stated) | < 3.70 | < 3.70 | –
CCCCCCCCCCCCCCCCCCNc1ccn(C2OC(COP(=O)(O)OCC(COP(=O)(O)OCC3OC(n4cc(C)c(=O)[nH]c4=O)CC3N=[N+]=[N-])OC(=O)CCCCCCCCCCCCCCC)C(O)C2O)c(=O)n1 (configuration not stated) | 4.95 | 4.16 | –
CNC1=CC(=O)C2=C(C1=O)[C@H]1CC[C@]3(C)C(=O)CC[C@H]3[C@@H]1CC2 | < 3.70 | 4.52 | –
O=C1NC(=O)N2CCSC2(Cc2ccccc2)N1 (configuration not stated) | – | – | inactive
O=C1C2=C(CC3=C(C2)CS(=O)(=O)C3)C(=O)C2=C1CC1=C(C2)CS(=O)(=O)C1 | < 3.70 | 5.22 | –
Cc1ccc(C=C2C(=O)NC(=O)NC2=O)cc1 | < 3.81 | < 3.81 | –
COC1/C=C/OC2(C)Oc3c(C)c(O)c4c(O)c(c(/C=N/n5cnc6c(ncn6C6OC(CO)C(O)C6O)c5=O)c(O)c4c3C2=O)NC(=O)/C(C)=C\C=C\C(C)C(O)C(C)C(O)C(C)C(OC(C)=O)C1C (configuration not stated) | < 3.70 | 4.18 | –
O=C1c2cccc3cccc(c23)C(=O)N1Cc1ccccc1 | < 3.70 | 4.21 | –
Cc1c(N=Nc2ccccc2)c(-c2ccccc2)n(C2OC(CO)C(O)C(O)C2O)c(=S)c1C#N (configuration not stated) | < 3.70 | 4.82 | –
CC(=O)OC1COC(n2c(=S)n(-c3ccccc3)c(=O)c3ccccc32)C(OC(C)=O)C1OC(C)=O (configuration not stated) | < 4.44 | < 4.44 | –
C1CCC2(CC1)SSC1(CCCCC1)S2 | < 3.70 | 3.96 | –
CC(C)(C)OC(=O)NC(CCC(=O)OCc1ccccc1)C(=O)NCCCO (configuration not stated) | < 3.70 | < 3.70 | –
CCOC(=O)C[C@](C)(O)C1CCCN1 (some centres not stated) | – | – | inactive
Cc1ccc(NC(=O)C(=O)CC(=O)c2ccccc2)cc1C | < 5.31 | < 5.31 | –
CCOC(=O)C(C)(C)Oc1ccc2c(-c3ccccc3)cc(=O)oc2c1 | < 4.69 | < 4.69 | –
CC1(n2nc(-c3ccccc3)n(-c3ccccc3)c2=O)CSC1 | < 4.38 | < 4.38 | –
O=C(NNC(=O)c1ccccc1O)c1cccc(Br)c1 | < 3.70 | 5.19 | –
